Experimental data as given in patent US5783568A, “Methods for treating cancer and other cell proliferative diseases” (Sugen, Inc., priority 1994, dated 1998).
“Also recorded” adds a separate entry of the source.

Legend:
[1] = system: sFGFR (soluble extracellular domain of FGFR2); assay: Binding of sFGFR to a heparin-sepharose column; parameters: species or system human
[2] = system: sFGFR (soluble extracellular domain of FGFR2); assay: Covalent cross-linking (DSS) of sFGFR, dimerization; format: biochemical, human
Method: Purified sFGFR was incubated with aFGF in the presence (lanes 2, 4, 6 and 8) or absence (lanes 1, 3, 5 and 7) of heparin for 1 hour at room temperature. The covalent cross-linker, DSS, was then added and incubation was continued for a further 45 minutes. Samples were then boiled in Laemmli sample buffer, separated by SDS-PAGE (6-12% gradient gel), and transferred to a nitro-cellulose membrane. The protein bands were visualized by blotting with anti-FGFR2 (lanes 1-4) or anti-aFGF antibodies (lanes 5-8), followed by ^125 I-protein A. I-sFGFR monomers; II-aFGF/sFGFR complex (monomeric); III-aFGF/sFGFR complex (dimeric).
A plasmid encoding the extracellular, ligand-binding domain of human FGFR2 (residues 1-355) was constructed using standard oligonucleotide-directed mutagenesis (Amersham) to introduce a translational termination codon immediately prior to the beginning of the single transmembrane domain of the receptor (Dionne et al., 1990). BamHI and SacII restriction sites were introduced 3' to the new termination codon. An XbaI-SacII fragment was isolated from the replicative form (RF) of this M13 mutagenesis product, filled in using T4 DNA polymerase (Boehringer-Mannheim) and inserted into the SmaI site of the expression vector pCVN (Dionne et al., 1990). This expression vector, which contains both the neomycin resistance and the dihydrofolate reductase genes for selection and amplification, was transfected into CHO cells following published procedures. Wigler et al., 1979, Cell 16:777-785.
Purified sFGFR (0.2 μM) was incubated with aFGF (0.6 μM) in the presence or absence of heparin. […] Cross-linking studies of aFGF alone were performed using the same procedure, except that samples were analyzed by 15% SDS-PAGE and detected by staining with Coomassie Brilliant Blue.
If aFGF activates its receptor in a similar manner, aFGF binding to sFGFR would therefore be expected to promote its dimerization. […] Samples were then analyzed by SDS-PAGE, followed by immunoblotting with either anti-FGFR2 or anti-aFGF antibodies. […]

[3] = system: FGFR2 (bek); assay: Tyrosine phosphorylation of FGFR2 in mutant (HSPG-deficient) CHO-pgsD-677 cells; format: cell-based, human; details: 0.1 nM aFGF, 50 nM heparin, 5 min at 37° C.
Method: Cells were lysed and the receptor was immunoprecipitated with anti-FGFR2 antibodies. Samples were then analyzed by SDS-PAGE, transferred to nitrocellulose membranes, and tyrosine-phosphorylated proteins were detected by immunoblotting with anti-phosphotyrosine antibodies.
Wild-type CHO cells (CHO-K1), as well as heparin sulfate-deficient mutant cells (CHO-pgsD-677) which were kindly provided by Prof. J. Esko (Esko, 1991), were cultured in F-12 medium containing 7.5% FBS, 1% Ampicillin/Streptomycin and 1% glutamine. Both CHO cell lines were co-transfected with the wild-type human FGFR2 (bek) DNA in the expression vector pMJ30 (Dionne et al., 1990) (40 μg/10 cm dish) and the pSVneo resistant gene (0.5 mg/10 cm dish), using the calcium phosphate method (Chen and Okayama, 1987). Geneticin (1 mg/ml) resistant clones were screened for expression of the receptor by immunoprecipitation and immunoblotting analysis using anti-FGFR2 antibodies.
Wild-type and mutant CHO cells were starved overnight in F-12 medium containing 0.5% FBS, and stimulated with either 0.1 nM aFGF, 50 nM heparin, or both, for 5 min at 37° C. Cells were lysed, immunoprecipitated with anti-FGFR2 antibodies and analyzed by immunoblotting with anti-phosphotyrosine (anti-PTyr) antibodies.

| Substance | binding of sFGFR to heparin-sepharose column [1] | sFGFR dimerization, heparin plus aFGF ([2]; both heparin and aFGF) | effect on mobility of sFGFR, heparin alone ([2]; no aFGF) | FGFR2 autophosphorylation in mutant (heparin-deficient) CHO cells [3] | sFGFR dimerization, aFGF alone ([2]; no heparin) |
| --- | --- | --- | --- | --- | --- |
| heparin | could not be detected | cross-linked dimers of sFGFR are formed under these conditions; also recorded: the binding of aFGF to sFGFR did lead to its dimerization | did not affect the mobility of sFGFR | required for significant levels of aFGF-induced FGFR2 autophosphorylation; also recorded: the addition of heparin is required for aFGF to activate FGFR | – |
| aFGF: aFGF was expressed in E. coli and purified by binding to a heparin-sepharose column | – | – | – | – | No cross-linked dimeric form of sFGFR could be detected; also recorded: they were not detected in the presence of aFGF alone; also recorded: did not, however, result in the formation of dimers of the receptor extracellular domain |
